Earlier results, collected in patent US8481600B2, “Formulation of aspirin that is stable and showing minimal hydrolysis for parenteral administration for the treatment of cardiovascular and other disease states” (Academic Pharmaceuticals, Inc., priority 2007, dated 2013).

What was measured:
[1] = cited from earlier work
[2] = cited from earlier work; remark: listed apart in the source
[3] = cited from earlier work; remark: listed apart in the source

## CC(=O)Oc1ccccc1C(=O)O [Lysine acetylsalicylate]
[1]; human, in vivo
  treatment of acute migraine headaches: effective
[1]; patients
  incidence of sensitivity that can lead to anaphylactic shock: up to 5%
[2]
  water solubility: readily water soluble
[3]; IV
  shortest half life after IV administration: 7.5 min
[3]; in vivo
  metabolism and hydrolysis to salicylic acid: rapid
